Test results from patent US12473305B2, “Pyrazole boronic acid compound, pharmaceutical composition containing same, and uses thereof” (BEIJING SONGRUN PHARMACEUTICAL TECHNOLOGY CO., LTD., priority 2020, dated 2025).
Counter-ions that a name gives are not always drawn.

Assays:
[1] = tested on: non-small cell lung cancer cell line A549; assay: CellTiter-Glo tumor cell proliferation, A549; format: cell-based, human; conditions: Homo sapiens, A549, 72 h, read-out: Inhibition rate A549 (%)
Protocol: (§1) The effect of compounds on tumor cell proliferation was detected by CellTiter-Glo method. Human melanoma cell line A375, non-small cell lung cancer cell line A549, human lung adenocarcinoma cell line H1299, colorectal cancer cell line HCT116, liver cancer cell line HepG2 and gastric cancer cell line MGC80-3 were cultured in vitro. The cells were collected after growing to the logarithmic growth phase, centrifuged at 1000 rpm for 5 min, and suspended in an appropriate amount of medium after discarding the supernatant, and the cell concentration was adjusted to 2×10^4/mL. The cell suspension was inoculated onto the 384-well cell culture plate, with 50 μL per well. After being cultured in a cell incubator (37° C., 5% CO2) for 24 h, 5 μL of drug diluted by the cell culture medium was added into each well for the treatment group. Each drug was provided in triplicate. After 72 h incubation in the incubator, 20 μL of CellTiter-Glo was added into each well, and the relative luminescence unit (RLU) was measured with Multimode Microplate Reader Varioskan Flash (Thermo Scientific, USA) after placed at 37° C. for 20 min, and compared with the RLU of the control group. SigmaPlot 10.0 software was used to calculate the inhibition rate and IC50 value.

[2] = tested on: colorectal cancer cell line HCT116; assay: CellTiter-Glo tumor cell proliferation, HCT116; format: cell-based, human; conditions: 72 h; for inhibition at 1 µM / inhibition at 10 µM: read-out: Inhibition rate HCT116 (%); for IC50: CellTiter-Glo
Protocol: as §1

[3] = tested on: Human melanoma cell line A375; assay: CellTiter-Glo tumor cell proliferation, A375; format: cell-based; conditions: Homo sapiens, A-375, 72 h, read-out: Inhibition rate A375 (%)
Protocol: as §1

IC50 ([2]; Homo sapiens, HCT-116) [nM] | IC50 [2] [nM] | Compound | inhibition at 1 µM [1] [%] | inhibition at 10 µM [1] [%] | inhibition at 1 µM ([2]; Homo sapiens, HCT-116) [%] | inhibition at 10 µM ([2]; Homo sapiens, HCT-116) [%] | inhibition at 1 µM [3] [%] | inhibition at 10 µM [3] [%]
891 | – | CC(C)[C@H](NC(=O)CN1NC(C)(c2cccc(OCCN3CCCCC3)c2)C=C1c1ccccc1)B(O)O (stereo partly drawn) [Compound 34, (R)-(3-methyl-1-(2-(5-phenyl-3-(3-(2-(piperidin-1-yl)ethoxy)phenyl)-1H-pyrazol-1-yl)acetamido)isobutyl)boronic acid hydrochloride] | – | – | – | – | – | –
– | 427 | (R)-(1-(2-(3-(N,N-diethylethoxy)phenyl)-5-phenyl-1H-pyrazol-1-yl)acetamido)isobutyl)boronic acid hydrochloride [Compound 32] | – | – | – | – | – | –
– | 281 | (R)-(3-methyl-1-(2-(3-(3-(2-(4-methylpiperazin-1-yl)ethoxy)phenyl)phenyl)-5-phenyl-1H-pyrazol-1-yl)acetamido)butyl)boronic acid hydrochloride [Compound 35] | – | – | – | – | – | –
925 | – | CC(C)[C@H](NC(=O)CN1NC(C)(c2cccc(OCCN3CCCC3)c2)C=C1c1ccccc1)B(O)O (stereo partly drawn) [Compound 33, (R)-(3-methyl-1-(2-(5-phenyl-3-(3-(2-(pyrrolidin-1-yl)ethoxy)phenyl)-1H-pyrazol-1-yl)acetamido)isobutyl)boronic acid hydrochloride] | – | – | – | – | – | –
57 | – | CC(C)C[C@H](NC(=O)Cn1nc(-c2cccc(OCCN3CC(C)OC(C)C3)c2)cc1-c1ccccc1)B(O)O (stereo partly drawn) [Compound 36, ((1R)-1-(2-(3-(3-(2-(2,6-dimethylmorpholino)ethoxy)phenyl)-5-phenyl-1H-pyrazol-1-yl)acetamido)-3-methylbutyl)boronic acid hydrochloride] | – | – | – | – | – | –

The next lines start with the compound.

Compound | IC50 ([2]; Homo sapiens, HCT-116) [nM] | IC50 [2] [nM] | inhibition at 1 µM [1] [%] | inhibition at 10 µM [1] [%] | inhibition at 1 µM ([2]; Homo sapiens, HCT-116) [%] | inhibition at 10 µM ([2]; Homo sapiens, HCT-116) [%] | inhibition at 1 µM [3] [%] | inhibition at 10 µM [3] [%]
Cc1cccc(S(=O)(=O)Oc2ccccc2-c2cc(-c3ccccc3)n(CC(=O)N[C@@H](CC(C)C)B(O)O)n2)c1 [Compound 8, (R)-(3-methyl-1-(2-(5-phenyl-3-(2-((m-tolylsulfonyl)oxy)phenyl)-1H-pyrazol-1-yl)acetamido)butyl)boronic acid] | – | – | 2.9 | 73.4 | 2.1 | 98.5 | 1.8 | 98.9
CC(C)C[C@H](NC(=O)Cn1nc(-c2ccccc2OS(=O)(=O)c2cccc(C(F)(F)F)c2)cc1-c1ccc(-c2ccccc2)cc1)B(O)O [Compound 22, (R)-(1-(2-(5-([1,1′-biphenyl]-4-yl)-3-(2-(((3-(trifluoromethyl)phenyl)sulfonyl)oxy)phenyl)-1H-pyrazol-1-yl)acetamido)-3-methylbutyl)boronic acid] | – | – | 3.7 | 16.1 | 3.9 | 18.1 | 10.9 | 39.1
Cc1ccc(-c2cc(-c3ccccc3OS(=O)(=O)c3cccc(C(F)(F)F)c3)nn2CC(=O)N[C@H](B(O)O)C(C)C)cc1 [Compound 20, (R)-(1-(2-(5-(4-methyl-phenyl)-3-(2-(((3-trifluoromethylphenyl)sulfonyl)oxy)phenyl)-1H-pyrazol-1-yl)acetamido)isobutyl)boronic acid] | – | – | 1.2 | 4.2 | 9.2 | 85.1 | 11.5 | 61.9
COc1ccc(-c2cc(-c3ccccc3OS(=O)(=O)c3cccc(C(F)(F)F)c3)nn2CC(=O)N[C@@H](CC(C)C)B(O)O)cc1 [Compound 21, (R)-(1-(2-(5-(4-methoxyphenyl)-3-(2-(((3-(trifluoromethyl)phenyl)sulfonyl)oxy)phenyl)-1H-pyrazol-1-yl)acetamido)-3-methylbutyl)boronic acid] | – | – | 4.4 | 6.4 | 11.4 | 62.2 | 2 | 44.1
